Experimental data as given in patent publication US12606533B2, “3-phenylpropylamine derivative” (DAIICHI SANKYO COMPANY, LIMITED, priority 2023, dated 2026).

Columns and labels:
[1] = tested on: CYP21A2; test: Changes in SF1 target gene expression for NCI-H295R: CYP21A2 mRNA (qPCR); format: cell-based; conditions: Homo sapiens, NCI-H295R cells, 24 hr
Procedure: (§1) NCI-H295R cells were cultured in a 5% CO2 incubator at 37° C. using DMEM/F12 medium (Thermo Fisher Scientific Inc.) containing 2.5% Nu-Serum (registered trademark) Growth Medium Supplement (Corning) and 1% Corning ITS+ Premix Universal Culture Supplement (Corning). The DMSO solution of each compound was serially diluted with DMSO using a D300e Digital Dispenser (TECAN), and the compounds were added to a 96-well plate (FALCON). NCI-H295R cells were seeded at 1×10^4 cells/50 μL/well on the 96-well plate containing the compounds added thereto, and cultured for 24 hr in a 5% CO2 incubator at 37° C. The final DMSO concentration in the medium was adjusted to 0.1% (v/v) in all cases, and the concentration range of the compounds was set to 1000 nM to 0.32 nM with a common ratio […]. After the completion of culture, the medium was discarded, 50 μL/well of chilled D-PBS (Sigma Aldrich) was added to wash the cells, and D-PBS was discarded. After washing, 25 μL/well of Cells-to-CT (registered trademark) Bulk Lysis Reagents (Thermo Fisher Scientific, Inc.) was added to the wells, the mixture was stirred for 5 min with a plate mixer, and 2.5 μL/well of the reaction quenching liquid was added to prepare cell lysate. The cell lysate was dispensed into a 96-well plate (Corning) at 10 μL/well, and 40 μL/well of Cells-to-CT Bulk RT Reagents (Thermo Fisher Scientific, Inc.) was added. A reverse transcription reaction was performed at 37° C. for 50 min using a thermal cycler, and the reverse transcriptase was inactivated by heating at 95° C. for 5 min, and then stored at 10° C. PrimeTime (registered trademark) Gene Expression Master Mix (Integrated DNA Technologies), the target genes CYP11A1, CYP17A1, CYP21A2, or STAR, and the control gene ACTB PrimeTime (registered trademark) qPCR Probe Assays (Integrated DNA Technologies), and Nuclease free water were mixed at a ratio of 20:1:1:10 to prepare a PrimerProbe mix. The prepared PrimerProbe mix was added to a 384-well plate at 8 μL/well, and the cDNA obtained by reverse transcription was added at 2 μL/well. Real-Time PCR was performed under fast cycling conditions (95° C. for 3 min, followed by 40 cycles of 95° C. for 5 seconds and 62° C. for 30 seconds) to measure the fluorescent signal. The obtained data was analyzed using GraphPad Prism9 (GraphPad Software Inc.) to calculate the concentration (IC50 value) that reduces the mRNA expression level by 50%. The IC50 values (unit: nM) for CYP11A1, CYP17A1, CYP21A2, and STAR, of the compounds corresponding to each Example number are shown in Table 94.

[2] = tested on: CYP17A1; test: Changes in SF1 target gene expression for NCI-H295R: CYP17A1 mRNA (qPCR); format: cell-based; conditions: Homo sapiens, NCI-H295R cells, 24 hr
Procedure: as §1

[3] = target: SF1-LBD (Homo sapiens, UniProt Q13285); test: Inhibitory activity against binding of DAX1 to SF1-LBD (AlphaLISA); conditions: inhibition of binding of DAX1 peptide to His-SF1-LBD, read-out: cell-free SF1 IC50
Procedure: The binding activity of each compound to the SF-1 ligand binding domain (LBD) was evaluated using the binding inhibitory activity of each compound against binding of DAX1 to SF1-LBD as an index. 100 nM His-SF1-LBD, 2 nM Biotin-DAX1 peptide (Biotin-[…]-NH2) and each compound (8-point i1 dilution series with common ratio 2 from final concentration 2 μM) were mixed in assay buffer [25 mM HEPES (pH 7.5), 100 mM NaCl, 0.1% BSA, 0.01% CHAPS, 1 mM DTT] and reacted at room temperature for 30 min. Anti-6×His AlphaLISA Acceptor beads and Streptavidin-coated AlphaScreen Donor beads were mixed to a final concentrations of 5 μg/ml and 10 μg/ml, respectively, and reacted in the dark at room temperature for 60 min. AlphaLISA signals were detected using a multimode plate reader (EnVision Xcite, PerkinElmer). The binding rate of DAX1 peptide to SF1 was calculated from the luminescence amount (C) of the compound-free group and the luminescence amount (T) of the compound-added group, based on the following formula.
The DAX1 peptide binding rate at each concentration was analyzed using GraphPad Prism6 (GraphPad Software Inc.) to calculate the concentration (IC50 value) of each compound that inhibits 50% of the binding of DAX1 to SF1-LBD.

[4] = tested on: CYP11A1; test: Changes in SF1 target gene expression for NCI-H295R: CYP11A1 mRNA (qPCR); format: cell-based; conditions: Homo sapiens, NCI-H295R cells, 24 hr
Procedure: as §1

[5] = tested on: STAR; test: Changes in SF1 target gene expression for NCI-H295R: STAR mRNA (qPCR); format: cell-based; conditions: Homo sapiens, NCI-H295R cells, 24 hr
Procedure: as §1

SF1-LBD, sequence (Q13285 222-459 limits assumed): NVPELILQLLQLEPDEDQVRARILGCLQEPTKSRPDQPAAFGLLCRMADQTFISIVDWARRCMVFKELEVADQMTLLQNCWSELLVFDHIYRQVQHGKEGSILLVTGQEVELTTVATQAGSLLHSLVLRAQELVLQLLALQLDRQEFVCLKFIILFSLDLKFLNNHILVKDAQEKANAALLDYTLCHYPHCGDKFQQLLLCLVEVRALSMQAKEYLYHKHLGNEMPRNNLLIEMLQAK

Compound | IC50 [1] [µM] | IC50 [2] [µM] | IC50 [3] [µM] | IC50 [4] [µM] | IC50 [5] [µM]
COc1ccc(C2(CCN(Cc3ccc(O[C@H]4CC[C@H](C(=O)O)CC4)cc3)C(=O)C(C)(C)C)CCOC(C)(C)C2)cc1 (stereo partly drawn) [Example D3, Trans-4-(4-{[(2,2-dimethylpropanoyl){2-[4-(4-methoxyphenyl)-2,2-dimethyltetrahydro-2H-pyran-4-yl]ethyl}amino]methyl}phenoxy)cyclohexanecarboxylic acid] | 0.078 | 0.144 | 0.029 | 0.053 | 0.076
CC1(C)CC(CCN(Cc2ccc(O[C@H]3CC[C@H](C(=O)O)CC3)cc2)C(=O)C(C)(C)C)(c2ccc(N3CCCC3)cc2)CCO1 (stereo partly drawn) [Example G3, Trans-4-(4-{[(2,2-dimethylpropanoyl) (2-{2,2-dimethyl-4-[4-(pyrrolidin-1-yl)phenyl]tetrahydro-2H-pyran-4-yl}ethyl)amino]methyl}phenoxy)cyclohexanecarboxylic acid] | 0.042 | 0.073 | 0.054 | 0.032 | 0.035
COc1ccc(C2(CCN(Cc3ccc(O[C@H]4CC[C@H](C(=O)NS(=O)(=O)N(C)C)CC4)cc3)C(=O)C(C)(C)C)CCOC(C)(C)C2)cc1 (stereo partly drawn) [Example H1, Trans-4-(4-{[(2,2-dimethylpropanoyl) {2-[4-(4-methoxyphenyl)-2,2-dimethyltetrahydro-2H-pyran-4-yl]ethyl}amino]methyl}phenoxy)-N-(dimethylsulfamoyl)cyclohexanecarboxamide] | 0.039 | 0.08 | 0.032 | 0.025 | 0.037
COc1ccc(C2(CCN(Cc3ccc(O[C@H]4CC[C@H](C(=O)O)CC4)cc3)c3ccccn3)CCOC(C)(C)C2)cc1 (stereo partly drawn) [Example I2, trans-4-(4-{[{2-[4-(4-Methoxyphenyl)-2,2-dimethyltetrahydro-2H-pyran-4-yl]ethyl}(pyridin-2-yl)amino]methyl}phenoxy)cyclohexanecarboxylic acid] | 0.052 | 0.117 | 0.047 | 0.029 | 0.055
CNc1ccc(C2(CCN(Cc3ccc(O[C@H]4CC[C@H](C(=O)O)CC4)cc3)C(=O)C(C)(C)C)CCOC(C)(C)C2)cc1 (stereo partly drawn) [Example L2, Trans-4-(4-{[(2-{2,2-dimethyl-4-[4-(methylamino)phenyl]tetrahydro-2H-pyran-4-yl}ethyl) (2,2-dimethylpropanoyl)amino]methyl}phenoxy)cyclohexanecarboxylic acid] | 0.046 | 0.238 | 0.032 | 0.017 | 0.083
COc1ccc(C2(CCN(Cc3ccc(O[C@H]4CC[C@H](C(=O)O)CC4)cc3)c3ncc(F)cn3)CCOC(C)(C)C2)cc1 (stereo partly drawn) [Example O2, Trans-4-(4-{[(5-fluoropyrimidin-2-yl) {2-[4-(4-methoxyphenyl)-2,2-dimethyltetrahydro-2H-pyran-4-yl]ethyl}amino]methyl}phenoxy)cyclohexanecarboxylic acid] | 0.082 | 0.211 | 0.036 | 0.035 | 0.075

Compounds with a lower IC50 [1], results first:

IC50 [1] [µM] | IC50 [2] [µM] | IC50 [3] [µM] | IC50 [4] [µM] | IC50 [5] [µM] | Compound
0.033 | 0.189 | 0.019 | 0.017 | 0.065 | COc1ccc([C@]2(CCN(Cc3ccc(O[C@H]4CC[C@H](C(=O)O)CC4)cc3)C(=O)C(C)(C)C)CCOC(C)(C)C2)cc1 [Example E2, Trans-4-(4-{[(2,2-dimethylpropanoyl) {2-[(4R)-4-(4-methoxyphenyl)-2,2-dimethyltetrahydro-2H-pyran-4-yl]ethyl)amino]methyl}phenoxy)cyclohexanecarboxylic acid]
0.023 | 0.166 | 0.031 | 0.014 | 0.069 | CC(C)Oc1ccc(C2(CCN(Cc3ccc(O[C@H]4CC[C@H](C(=O)O)CC4)cc3)C(=O)C(C)(C)C)CCOC(C)(C)C2)cc1 (stereo partly drawn) [Example F4, Trans-4-(4-{[(2,2-dimethylpropanoyl) (2-{2,2-dimethyl-4-[4-(propan-2-yloxy)phenyl]tetrahydro-2H-pyran-4-yl}ethyl)amino]methyl}phenoxy)cyclohexanecarboxylic acid]
0.0081 | 0.07 | 0.039 | 0.0041 | 0.014 | COc1ccc(C2(CCN(Cc3ccc(Oc4ccc(CC(C)(C)C(=O)O)cc4)cc3)C(=O)C(C)(C)C)CCOC(C)(C)C2)cc1 (stereo not shown) [Example J4, 3-[4-(4-{[(2,2-Dimethylpropanoyl){2-[4-(4-methoxyphenyl)-2,2-dimethyltetrahydro-2H-pyran-4-yl]ethyl}amino]methyl}phenoxy)phenyl]-2,2-dimethylpropanoic acid]
0.028 | 0.141 | 0.029 | 0.012 | 0.047 | COc1ccc(C2(CCN(CCC(F)(F)F)Cc3ccc(O[C@H]4CC[C@H](CC(=O)O)CC4)cc3)CCOC(C)(C)C2)cc1 (stereo partly drawn) [Example K5, [Trans-4-(4-{[{2-[4-(4-methoxyphenyl)-2,2-dimethyltetrahydro-2H-pyran-4-yl]ethyl}(3,3,3-trifluoropropyl)amino]methyl}phenoxy)cyclohexyl]acetic acid]
0.0043 | 0.013 | 0.018 | 0.0028 | 0.0039 | COc1ccc([C@]2(CCN(Cc3ccc(O[C@H]4CC[C@H](C(=O)O)CC4)cc3)CC(C)(C)C(F)(F)F)CCOC(C)(C)C2)cc1 [Example M5, Trans-4-(4-{[{2-[(4R)-4-(4-methoxyphenyl)-2,2-dimethyltetrahydro-2H-pyran-4-yl]ethyl)(3,3,3-trifluoro-2,2-dimethylpropyl)amino]methyl}phenoxy)cyclohexanecarboxylic acid]
0.03 | 0.113 | 0.041 | 0.019 | 0.039 | COc1ccc(C2(CCN(Cc3ccc(Oc4ccc(N=S(C)(C)=O)cc4)cc3)C(=O)C(C)(C)C)CCOC(C)(C)C2)cc1 (stereo not shown) [Example N2]
0.0098 | 0.137 | 0.03 | 0.0044 | 0.019 | COc1ccc([C@]2(CCN(Cc3ccc(Oc4ccc(C(C)C(=O)O)cc4)cc3)CC(C)(C)C(F)(F)F)CCOC(C)(C)C2)cc1 (stereo partly drawn) [Example P3, 2-[4-(4-{[{2-[(4R)-4-(4-Methoxyphenyl)-2,2-dimethyltetrahydro-2H-pyran-4-yl]ethyl}(3,3,3-trifluoro-2,2-dimethylpropyl)amino]methyl}phenoxy)phenyl]propanoic acid]
0.019 | 0.189 | 0.035 | 0.0085 | 0.044 | COc1ccc(C2(CCN(Cc3ccc(C(=O)c4ccc(CCC(=O)O)cc4)c(C)c3)C(=O)C(C)(C)C(F)(F)F)CCOC(C)(C)C2)cc1 (stereo not shown) [Example Q4, 3-[4-(4-{[{2-[4-(4-Methoxyphenyl)-2,2-dimethyltetrahydro-2H-pyran-4-yl]ethyl}(3,3,3-trifluoro-2,2-dimethylpropanoyl)amino]methyl}-2-methylbenzoyl)phenyl]propanoic acid]
